The source made the active and inactive calls. The rule behind the calls is not given here.
Key:
Rattus norvegicus [1] = test: Effect on uterine weight as tissue specific estrogen agonist assay in ovariectomized rat model at 0.1 mg/kg dose: Not significant; type: functional, organism-based; design: dose 0.1 mg/kg
[2] = target: T1, Estrogen receptor (Rattus norvegicus) (UniProt P06211+Q62986); test: Effect on uterine weight as tissue specific estrogen agonist assay in ovariectomized rat model: significant increase at <=10 mg/kg dose; type: functional, organism-based; settings: filed as agonist
[3] = target: T1, Estrogen receptor (Rattus norvegicus); test: Effect on serum cholesterol level as tissue specific estrogen agonist assay in ovariectomized rat model: significant decrease at <10 mg/kg dose; type: functional, organism-based; settings: filed as agonist
MCF7 = test: Inhibition of MCF-7 cell proliferation stimulated by 10e-12 M estradiol: Not active; type: functional, cell-based; settings: Homo sapiens
Rattus norvegicus [4] = organism: Rattus norvegicus; test: Effect on uterine weight as tissue specific estrogen agonist assay in ovariectomized rat model: Not significant; type: functional, organism-based
Rattus norvegicus [5] = organism: Rattus norvegicus; test: Effect on serum cholesterol level as tissue specific estrogen agonist assay in ovariectomized rat model: Not significant; type: functional, organism-based
[6] = target: T1, Estrogen receptor (Rattus norvegicus); test: Effect on serum cholesterol level as tissue specific estrogen agonist assay in ovariectomized rat model: significant decrease at <=10 mg/kg dose; type: functional, organism-based; settings: filed as agonist

In the case of `CC(C)c1sc2cc(O)ccc2c1C(=O)c1ccc(OCCN2CCCCC2)cc1`, the Activity (Rattus norvegicus [1]) was “inactive”.
With `Oc1ccc2c(Cc3ccc(OCCN4CCCCC4)cc3)c(C3CCCCC3)sc2c1` the Activity [2] was “Agonist” and the Activity [3] was “Agonist”.
`C[C@]12CC[C@@H]3c4ccc(O)cc4CC[C@H]3[C@@H]1CC[C@@H]2O` was tested, and the Dose (MCF7) was “inactive”.
`CCc1sc2cc(O)ccc2c1C(=O)c1ccc(OCCN2CCCCC2)cc1` was tested, and the Activity (Rattus norvegicus [4]) was “inactive”.
With `Oc1ccc2c(Cc3ccc(OCCN4CCCCC4)cc3)c([C@H]3CC[C@H](O)CC3)sc2c1` the Activity (Rattus norvegicus [1]) was “inactive”.
With `Cc1sc2cc(O)ccc2c1C(=O)c1ccc(OCCN2CCCCC2)cc1` the Activity (Rattus norvegicus [4]) was “inactive”.
For `Oc1ccc2c(C(O)c3ccc(OCCN4CCCCC4)cc3)c(C3CCCC3)sc2c1` (configuration not stated), the Activity (Rattus norvegicus [5]) was “inactive”.
For `CCc1sc2cc(O)ccc2c1Cc1ccc(OCCN2CCCCC2)cc1`, the Activity [2] was “Agonist” and the Activity [6] was “Agonist”.
With `Oc1ccc2c(Cc3ccc(OCCN4CCCCC4)cc3)c(C3CCCC3)sc2c1` the Activity (Rattus norvegicus [1]) was “inactive” and the Activity [6] was “Agonist”.
`CC(C)c1sc2cc(O)ccc2c1Cc1ccc(OCCN2CCCCC2)cc1` was tested, and the Activity [2] was “Agonist” and the Activity [6] was “Agonist”.
For `Cc1sc2cc(O)ccc2c1Cc1ccc(OCCN2CCCCC2)cc1`, the Activity (Rattus norvegicus [4]) was “inactive” and the Activity (Rattus norvegicus [5]) was “inactive”.
`O=C(c1ccc(OCCN2CCCCC2)cc1)c1c(C2CCCC2)sc2cc(O)ccc12` was tested, and the Activity (Rattus norvegicus [1]) was “inactive”.

Reference: ChEMBL document CHEMBL1150441
